ChEMBL document CHEMBL4837183, “Antiproliferative Bufadienolides from the Bulbs of Drimia altissima” (2021)

How the values were obtained:
Assay type in all cases: functional
SF-268 = test: Growth inhibition of human SF-268 cells measured after 48 hrs by SRB assay
SF-295 = test: Growth inhibition of human SF-295 cells measured after 48 hrs by SRB assay
SF-539 = test: Growth inhibition of human SF-539 cells measured after 48 hrs by SRB assay
SNB-19 = test: Growth inhibition of human SNB-19 cells measured after 48 hrs by SRB assay
SNB-75 = test: Growth inhibition of human SNB-75 cells measured after 48 hrs by SRB assay
U-251 = test: Growth inhibition of human U-251 cells measured after 48 hrs by SRB assay
A549 = test: Growth inhibition of human A549 cells measured after 48 hrs by SRB assay
HOP-62 = test: Growth inhibition of human HOP-62 cells measured after 48 hrs by SRB assay
HOP-92 = test: Growth inhibition of human HOP-92 cells measured after 48 hrs by SRB assay
NCI-H226 = test: Growth inhibition of human NCI-H226 cells measured after 48 hrs by SRB assay
NCI-H23 = test: Growth inhibition of human NCI-H23 cells measured after 48 hrs by SRB assay
NCI-H322M = test: Growth inhibition of human NCI-H322M cells measured after 48 hrs by SRB assay
NCI-H460 = test: Growth inhibition of human NCI-H460 cells measured after 48 hrs by SRB assay
NCI-H522 = test: Growth inhibition of human NCI-H522 cells measured after 48 hrs by SRB assay
PC-3 = test: Growth inhibition of human PC-3 cells measured after 48 hrs by SRB assay
DU-145 = test: Growth inhibition of human DU-145 cells measured after 48 hrs by SRB assay
IGROV-1 = test: Growth inhibition of human IGROV-1 cells measured after 48 hrs by SRB assay
OVCAR-3 = test: Growth inhibition of human OVCAR-3 cells measured after 48 hrs by SRB assay
OVCAR-5 = test: Growth inhibition of human OVCAR-5 cells measured after 48 hrs by SRB assay
OVCAR-8 = test: Growth inhibition of human OVCAR-8 cells measured after 48 hrs by SRB assay
NCI/ADR-RES = test: Growth inhibition of human NCI/ADR-RES cells measured after 48 hrs by SRB assay
SK-OV-3 = test: Growth inhibition of human SK-OV-3 cells measured after 48 hrs by SRB assay
786-0 = test: Growth inhibition of human 786-0 cells measured after 48 hrs by SRB assay
A498 = test: Growth inhibition of human A498 cells measured after 48 hrs by SRB assay
ACHN = test: Growth inhibition of human ACHN cells measured after 48 hrs by SRB assay
CAKI-1 = test: Growth inhibition of human CAKI-1 cells measured after 48 hrs by SRB assay
RXF 393 = test: Growth inhibition of human RXF 393 cells measured after 48 hrs by SRB assay
SN12C = test: Growth inhibition of human SN12C cells measured after 48 hrs by SRB assay
TK-10 = test: Growth inhibition of human TK-10 cells measured after 48 hrs by SRB assay
UO-31 = test: Growth inhibition of human UO-31 cells measured after 48 hrs by SRB assay
CCRF-CEM = test: Growth inhibition of human CCRF-CEM cells measured after 48 hrs by SRB assay
HL-60 = test: Growth inhibition of human HL-60 cells measured after 48 hrs by SRB assay
K562 = test: Growth inhibition of human K562 cells measured after 48 hrs by SRB assay
MOLT-4 = test: Growth inhibition of human MOLT-4 cells measured after 48 hrs by SRB assay
SR = test: Growth inhibition of human SR cells measured after 48 hrs by SRB assay
COLO 205 = test: Growth inhibition of human COLO 205 cells measured after 48 hrs by SRB assay
HCC 2998 = test: Growth inhibition of human HCC 2998 cells measured after 48 hrs by SRB assay
HCT-116 = test: Growth inhibition of human HCT-116 cells measured after 48 hrs by SRB assay
HCT-15 = test: Growth inhibition of human HCT-15 cells measured after 48 hrs by SRB assay
HT-29 = test: Growth inhibition of human HT-29 cells measured after 48 hrs by SRB assay
KM12 = test: Growth inhibition of human KM12 cells measured after 48 hrs by SRB assay
SW-620 = test: Growth inhibition of human SW-620 cells measured after 48 hrs by SRB assay
LOX IMVI = test: Growth inhibition of human LOX IMVI cells measured after 48 hrs by SRB assay
Malme-3M = test: Growth inhibition of human Malme-3M cells measured after 48 hrs by SRB assay
M14 = test: Growth inhibition of human M14 cells measured after 48 hrs by SRB assay
MDA-MB-435 = test: Growth inhibition of human MDA-MB-435 cells measured after 48 hrs by SRB assay
SK-MEL-2 = test: Growth inhibition of human SK-MEL-2 cells measured after 48 hrs by SRB assay
SK-MEL-28 = test: Growth inhibition of human SK-MEL-28 cells measured after 48 hrs by SRB assay
SK-MEL-5 = test: Growth inhibition of human SK-MEL-5 cells measured after 48 hrs by SRB assay
UACC-257 = test: Growth inhibition of human UACC-257 cells measured after 48 hrs by SRB assay
UACC-62 = test: Growth inhibition of human UACC-62 cells measured after 48 hrs by SRB assay
MCF7 = test: Growth inhibition of human MCF7 cells measured after 48 hrs by SRB assay
MDA-MB-231 = test: Growth inhibition of human MDA-MB-231 cells measured after 48 hrs by SRB assay
Hs-578T = test: Growth inhibition of human Hs-578T cells measured after 48 hrs by SRB assay
BT-549 = test: Growth inhibition of human BT-549 cells measured after 48 hrs by SRB assay
T47D = test: Growth inhibition of human T47D cells measured after 48 hrs by SRB assay
MDA-MB-468 = test: Growth inhibition of human MDA-MB-468 cells measured after 48 hrs by SRB assay

CC(=O)OC[C@H]1O[C@@H](O[C@@H]2C=C3CC[C@@H]4[C@H]([C@@H](O)C[C@]5(C)[C@@H](c6ccc(=O)oc6)CC[C@]45O)[C@@]3(C)CC2)[C@H](OC(C)=O)[C@@H](OC(C)=O)[C@@H]1OC(C)=O
GI50 (SF-268): 0.109 µM | GI50 (SF-295): 0.129 µM | GI50 (SF-539): 0.077 µM | GI50 (SNB-19): 0.421 µM | GI50 (SNB-75): 0.302 µM | GI50 (U-251): 0.295 µM | GI50 (A549): 0.075 µM | GI50 (HOP-62): 0.105 µM | GI50 (HOP-92): 0.286 µM | GI50 (NCI-H226): 0.264 µM | GI50 (NCI-H23): 0.181 µM | GI50 (NCI-H322M): 0.114 µM | GI50 (NCI-H460): 0.065 µM | GI50 (NCI-H522): 0.07 µM | GI50 (PC-3): 0.247 µM | GI50 (DU-145): 0.109 µM | GI50 (IGROV-1): 0.111 µM | GI50 (OVCAR-3): 0.092 µM | GI50 (OVCAR-5): 0.381 µM | GI50 (OVCAR-8): 0.246 µM | GI50 (NCI/ADR-RES): 0.283 µM | GI50 (SK-OV-3): 0.322 µM | GI50 (786-0): 0.102 µM | GI50 (A498): 0.064 µM | GI50 (ACHN): 0.056 µM | GI50 (CAKI-1): 0.098 µM | GI50 (RXF 393): 0.041 µM | GI50 (SN12C): 0.065 µM | GI50 (TK-10): 0.128 µM | GI50 (UO-31): 0.092 µM | GI50 (CCRF-CEM): 0.11 µM | GI50 (HL-60): 0.14 µM | GI50 (K562): 0.386 µM | GI50 (MOLT-4): 0.088 µM | GI50 (SR): 0.285 µM | GI50 (COLO 205): 0.629 µM | GI50 (HCC 2998): 0.677 µM | GI50 (HCT-116): 0.075 µM | GI50 (HCT-15): 0.225 µM | GI50 (HT-29): 0.321 µM | GI50 (KM12): 0.597 µM | GI50 (SW-620): 0.114 µM | GI50 (LOX IMVI): 0.314 µM | GI50 (Malme-3M): 0.105 µM | GI50 (M14): 0.416 µM | GI50 (MDA-MB-435): 0.29 µM | GI50 (SK-MEL-2): 0.362 µM | GI50 (SK-MEL-28): 0.273 µM | GI50 (SK-MEL-5): 0.095 µM | GI50 (UACC-257): 0.376 µM | GI50 (UACC-62): 0.155 µM | GI50 (MCF7): 0.103 µM | GI50 (MDA-MB-231): 0.812 µM | GI50 (Hs-578T): 0.091 µM | GI50 (BT-549): 0.093 µM | GI50 (T47D): 0.338 µM | GI50 (MDA-MB-468): 0.642 µM

CCO[C@@H]1C=C2CC[C@@H]3[C@H]([C@@H](O)C[C@]4(C)[C@@H](c5ccc(=O)oc5)CC[C@]34O)[C@@]2(C)CC1
GI50 (SF-268): 0.058 µM | GI50 (SF-295): 0.061 µM | GI50 (SF-539): 0.066 µM | GI50 (SNB-19): 0.347 µM | GI50 (SNB-75): 0.187 µM | GI50 (U-251): 0.151 µM | GI50 (A549): 0.04 µM | GI50 (HOP-62): 0.056 µM | GI50 (HOP-92): 0.153 µM | GI50 (NCI-H226): 0.181 µM | GI50 (NCI-H23): 0.086 µM | GI50 (NCI-H322M): 0.121 µM | GI50 (NCI-H460): 0.039 µM | GI50 (NCI-H522): 0.035 µM | GI50 (PC-3): 0.145 µM | GI50 (DU-145): 0.052 µM | GI50 (IGROV-1): 0.138 µM | GI50 (OVCAR-3): 0.059 µM | GI50 (OVCAR-5): 0.28 µM | GI50 (OVCAR-8): 0.165 µM | GI50 (NCI/ADR-RES): 0.091 µM | GI50 (SK-OV-3): 0.338 µM | GI50 (786-0): 0.071 µM | GI50 (A498): 0.039 µM | GI50 (ACHN): 0.037 µM | GI50 (CAKI-1): 0.057 µM | GI50 (RXF 393): 0.025 µM | GI50 (SN12C): 0.046 µM | GI50 (TK-10): 0.094 µM | GI50 (UO-31): 0.054 µM | GI50 (CCRF-CEM): 0.054 µM | GI50 (HL-60): 0.12 µM | GI50 (K562): 0.129 µM | GI50 (MOLT-4): 0.042 µM | GI50 (SR): 0.124 µM | GI50 (COLO 205): 0.401 µM | GI50 (HCC 2998): 0.537 µM | GI50 (HCT-116): 0.039 µM | GI50 (HCT-15): 0.086 µM | GI50 (HT-29): 0.078 µM | GI50 (KM12): 0.349 µM | GI50 (SW-620): 0.063 µM | GI50 (LOX IMVI): 0.137 µM | GI50 (Malme-3M): 0.145 µM | GI50 (M14): 0.232 µM | GI50 (MDA-MB-435): 0.178 µM | GI50 (SK-MEL-2): 0.234 µM | GI50 (SK-MEL-28): 0.296 µM | GI50 (SK-MEL-5): 0.072 µM | GI50 (UACC-257): 0.268 µM | GI50 (UACC-62): 0.145 µM | GI50 (MCF7): 0.055 µM | GI50 (MDA-MB-231): 0.588 µM | GI50 (Hs-578T): 0.044 µM | GI50 (BT-549): 0.056 µM | GI50 (T47D): 0.255 µM | GI50 (MDA-MB-468): 0.501 µM
